Key:
[1] = biological target: T1, aggregated tau in brain sections of line 66 mice (full-length human tau, P301S/G335D) (Homo sapiens, UniProt P10636, G652D/P618S); test: Ligand staining of paraffin-embedded brain sections; set-up: species or system mouse
T1 construct: transgenic mice expressing full-length human tau; from tissue; host or cells: fixed brain sections of transgenic line 66 mice (paraffin-embedded or frozen)
Excerpt: The binding of ligands to aggregated tau in tissue sections or cells containing such aggregates can also be used to test whether such compounds can (i) enter cells, and (ii) bind to aggregated tau. In addition, it is a suitable means to test fluorescent ligands that cannot be tested in the fluorescent competition binding assay.
Brain tissue sections were used from transgenic mice expressing full-length human tau, that contained a double mutation P301S/G335D (line 66 mouse). Aggregated tau pathology accumulates in neurons in these animals. Fixed tissue was used either after embedding in paraffin or after freezing in the presence of cryoprotectant.
Sections from the brains of mice expressing full-length tau, that contain a double mutation P301S/G335D, associated with frontotemporal […] were cut 5 μm thick. Sections were dewaxed and rehydrated into water. Inherent fluorescence was quenched with sodium permanganate followed by sodium borohydride. Primulin or SK2033-30 was added in 50% ethanol. In a second experiment, SK2033-30 was added in 50% ethanol containing 10% DMSO. Sections were compared with those stained by standard immunohistochemistry using mAb 7/51, an antibody recognising truncated tau repeat domain (Novak et al. (1993); Wischik et al. (1996)).

[2] = biological target: T2, aggregated tau in 3T6 cells expressing htau40 (IPTG-inducible) and truncated tau (Homo sapiens, UniProt P10636); test: Tissue culture cell assay: uptake and labelling of aggregated tau; type: cell-based, mouse; details: for binding to aggregated tau within cells, fluorescence microscopy: induced cells
T2 construct: express both full-length human tau protein (htau40); truncated tau (295-390, dGA); expressed in transfected cells; host or cells: murine 3T6 fibroblasts; htau40 in pOPRSVI (IPTG-inducible), dGA in pcDNA3.1 (constitutive)
Method: The aggregated tau was prepared in cell lines as described in WO02/055720. In essence, fibroblast cells (3T6) express full-length tau (“T40”) under control of an inducible promotor, and low constitutive levels of the PHF-core tau fragment (12 kD fragment). Then T40 expression is induced, it undergoes aggregation-dependent truncation within the cell, N-terminally at ˜αα295 and C-terminally at ˜αα390, thereby producing higher levels of the 12 kD PHF-core domain fragment.
The tissue culture assay uses 3T6 mouse cells engineered to express both full-length human tau protein (htau40) under the control of an inducible promoter (pOPRSVI), and to express low levels of truncated tau (295-390, dGA) under the control of a constitutive promoter (pcDNA3.1). Expression of large quantities of htau40 is induced by the addition of isopropyl β-D-1-thiogalactopyranoside (IPTG; 10-50 μM), which in turn leads to the production of additional truncated tau by a process in which aggregation and processing of the full-length tau occurs in the presence of dGA tau which acts as template. The aggregation of tau in this assay is depicted in FIG. 1.
Murine 3T6 fibroblast cells were grown to ˜80% confluency in a 10-cm dish, before splitting into 2×24 well plates, and allowed to grow for a further 24 hrs when IPTG was added. After overnight incubation, the medium was removed and the cells were washed with PBS.
A similar experiment was performed with cells seeded on to cover slips in a 24-well plate. After 24 hrs, the cells were incubated with ligand for 20 hrs in the presence or absence of IPTG (100 μM) i.e. induced or uninduced.

[3] = Biodistribution assay of 18F-labelled ligand; type: in vivo, mouse; details: mice
Method: Biodistribution and excretion studies for ligands were performed in male NMRI mice (body weight app. 30 g; 3 animals per time point). The animals were kept under normal laboratory conditions at a temperature of 22±2° C. and a dark/light rhythm of 12 hours. Food and water were provided ad libitium. During an acclimatisation period of at least 3 days before the beginning of the study, animals were clinically examined to ascertain the absence of abnormal clinical signs. At 2, 5, 30, 60 and 120 min post intravenous injection via the tail vein of ca. 150 kBq in 100 μl of the test compound, urine and faeces were quantitatively collected. At the same time points, animals were anaesthetised with isoflurane, sacrificed by decapitation and the following organs and tissues were removed for the determination of radioactivity using a gamma-counter: spleen, liver, kidney, lung, bone, heart, brain, fat, thyroid, muscle, skin, blood, tail, stomach (without content), testicle, intestine (with content), pancreas, adrenals, skull, and the remaining body. For the analysis, the decay corrected percentage of the injected dose per tissue weight (% ID/g±standard deviation) was calculated.

T1 sequence (P10636 1-441 isoform P10636-8 P301S/G335D): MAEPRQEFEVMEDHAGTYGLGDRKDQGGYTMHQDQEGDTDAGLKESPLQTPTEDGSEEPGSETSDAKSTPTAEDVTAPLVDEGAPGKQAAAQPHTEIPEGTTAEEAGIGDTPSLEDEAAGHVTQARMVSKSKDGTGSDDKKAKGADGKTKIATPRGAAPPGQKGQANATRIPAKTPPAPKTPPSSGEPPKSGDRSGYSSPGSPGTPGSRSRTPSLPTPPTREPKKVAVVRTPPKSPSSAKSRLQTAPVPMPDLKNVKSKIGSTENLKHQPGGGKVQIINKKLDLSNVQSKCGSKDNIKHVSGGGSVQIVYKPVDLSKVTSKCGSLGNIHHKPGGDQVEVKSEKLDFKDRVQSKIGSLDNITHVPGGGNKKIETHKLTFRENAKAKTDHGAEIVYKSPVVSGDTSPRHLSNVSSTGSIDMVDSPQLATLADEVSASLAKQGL

Cc1ccc2nc(-c3ccc(/C=C/c4ccc(N(C)C)cc4)cc3)sc2c1 [SK2033-30, 2-{4-[2-(4-Dimethylaminophenyl)-vinyl]-phenyl}-6-methylbenzothiazole]
staining pattern in paraffin-embedded line 66 mouse brain section ([1]; ligand added in 50% ethanol containing 10% DMSO): showed a staining pattern similar to that observed with primulin or antibody | uptake/staining in paraffin-embedded line 66 mouse brain section ([1]; ligand added in 50% ethanol, compared with primulin or antibody immunostaining): little evidence for its uptake into cells | uptake and labelling of aggregated tau in induced cells ([2]; IPTG-induced cells): demonstrated | binding to aggregated tau within cells, fluorescence microscopy [2]: selective binding

COc1ccc2nc(-c3ccc(NC(=O)c4ccc([18F])nc4)cc3)sc2c1 [SKT04-137, 6-[^18F]Fluoro-N-[4-(6-methoxy-benzothiazol-2-yl)-phenyl]-nicotinamide]
% ID/g ([3]; Adrenals, 2 min post i.v.): 10.84 % ID/g | % ID/g ([3]; Adrenals, 5 min post i.v.): 9.59 % ID/g | % ID/g ([3]; Adrenals, 30 min post i.v.): 5.62 % ID/g | % ID/g ([3]; Adrenals, 60 min post i.v.): 2.83 % ID/g | % ID/g ([3]; Adrenals, 120 min post i.v.): 1.04 % ID/g | % ID/g ([3]; Blood, 2 min post i.v.): 1.69 % ID/g | % ID/g ([3]; Blood, 5 min post i.v.): 1.12 % ID/g | % ID/g ([3]; Blood, 30 min post i.v.): 0.74 % ID/g | % ID/g ([3]; Blood, 60 min post i.v.): 0.39 % ID/g | % ID/g ([3]; Blood, 120 min post i.v.): 0.16 % ID/g | % ID/g ([3]; Bone, 2 min post i.v.): 1.54 % ID/g | % ID/g ([3]; Bone, 5 min post i.v.): 1.50 % ID/g | % ID/g ([3]; Bone, 30 min post i.v.): 1.20 % ID/g | % ID/g ([3]; Bone, 60 min post i.v.): 1.96 % ID/g | % ID/g ([3]; Bone, 120 min post i.v.): 1.65 % ID/g | % ID/g ([3]; Brain, 2 min post i.v.): 3.99 % ID/g | % ID/g ([3]; Brain, 5 min post i.v.): 3.54 % ID/g | % ID/g ([3]; Brain, 30 min post i.v.): 3.19 % ID/g | % ID/g ([3]; Brain, 60 min post i.v.): 1.43 % ID/g | % ID/g ([3]; Brain, 120 min post i.v.): 0.60 % ID/g | % ID/g ([3]; Fat, 2 min post i.v.): 1.25 % ID/g | % ID/g ([3]; Fat, 5 min post i.v.): 1.57 % ID/g | % ID/g ([3]; Fat, 30 min post i.v.): 7.21 % ID/g | % ID/g ([3]; Fat, 60 min post i.v.): 4.51 % ID/g | % ID/g ([3]; Fat, 120 min post i.v.): 1.76 % ID/g | % ID/g ([3]; Heart, 2 min post i.v.): 6.68 % ID/g | % ID/g ([3]; Heart, 5 min post i.v.): 3.72 % ID/g | % ID/g ([3]; Heart, 30 min post i.v.): 1.62 % ID/g | % ID/g ([3]; Heart, 60 min post i.v.): 0.81 % ID/g | % ID/g ([3]; Heart, 120 min post i.v.): 0.39 % ID/g | % ID/g ([3]; Intestine, 2 min post i.v.): 1.99 % ID/g | % ID/g ([3]; Intestine, 5 min post i.v.): 2.45 % ID/g | % ID/g ([3]; Intestine, 30 min post i.v.): 9.36 % ID/g | % ID/g ([3]; Intestine, 60 min post i.v.): 17.43 % ID/g | % ID/g ([3]; Intestine, 120 min post i.v.): 20.08 % ID/g | % ID/g ([3]; Kidney, 2 min post i.v.): 9.60 % ID/g | % ID/g ([3]; Kidney, 5 min post i.v.): 7.10 % ID/g | % ID/g ([3]; Kidney, 30 min post i.v.): 6.38 % ID/g | % ID/g ([3]; Kidney, 60 min post i.v.): 3.78 % ID/g | % ID/g ([3]; Kidney, 120 min post i.v.): 1.49 % ID/g | % ID/g ([3]; Liver, 2 min post i.v.): 11.52 % ID/g | % ID/g ([3]; Liver, 5 min post i.v.): 13.30 % ID/g | % ID/g ([3]; Liver, 30 min post i.v.): 7.03 % ID/g | % ID/g ([3]; Liver, 60 min post i.v.): 4.26 % ID/g | % ID/g ([3]; Liver, 120 min post i.v.): 2.41 % ID/g | % ID/g ([3]; Lung, 2 min post i.v.): 6.91 % ID/g | % ID/g ([3]; Lung, 5 min post i.v.): 4.55 % ID/g | % ID/g ([3]; Lung, 30 min post i.v.): 1.83 % ID/g | % ID/g ([3]; Lung, 60 min post i.v.): 0.97 % ID/g | % ID/g ([3]; Lung, 120 min post i.v.): 0.40 % ID/g | % ID/g ([3]; Muscle, 2 min post i.v.): 1.98 % ID/g | % ID/g ([3]; Muscle, 5 min post i.v.): 1.80 % ID/g | % ID/g ([3]; Muscle, 30 min post i.v.): 1.11 % ID/g | % ID/g ([3]; Muscle, 60 min post i.v.): 0.63 % ID/g | % ID/g ([3]; Muscle, 120 min post i.v.): 0.20 % ID/g | % ID/g ([3]; Pancreas, 2 min post i.v.): 4.34 % ID/g | % ID/g ([3]; Pancreas, 5 min post i.v.): 3.17 % ID/g | % ID/g ([3]; Pancreas, 30 min post i.v.): 1.74 % ID/g | % ID/g ([3]; Pancreas, 60 min post i.v.): 1.11 % ID/g | % ID/g ([3]; Pancreas, 120 min post i.v.): 0.33 % ID/g | % ID/g ([3]; Skin, 2 min post i.v.): 1.01 % ID/g | % ID/g ([3]; Skin, 5 min post i.v.): 1.28 % ID/g | % ID/g ([3]; Skin, 30 min post i.v.): 1.87 % ID/g | % ID/g ([3]; Skin, 60 min post i.v.): 1.11 % ID/g | % ID/g ([3]; Skin, 120 min post i.v.): 0.45 % ID/g | % ID/g ([3]; Skull, 2 min post i.v.): 1.93 % ID/g | % ID/g ([3]; Skull, 5 min post i.v.): 1.28 % ID/g | % ID/g ([3]; Skull, 30 min post i.v.): 0.95 % ID/g | % ID/g ([3]; Skull, 60 min post i.v.): 1.44 % ID/g | % ID/g ([3]; Skull, 120 min post i.v.): 1.04 % ID/g | % ID/g ([3]; Spleen, 2 min post i.v.): 2.95 % ID/g | % ID/g ([3]; Spleen, 5 min post i.v.): 2.44 % ID/g | % ID/g ([3]; Spleen, 30 min post i.v.): 1.19 % ID/g | % ID/g ([3]; Spleen, 60 min post i.v.): 0.60 % ID/g | % ID/g ([3]; Spleen, 120 min post i.v.): 0.30 % ID/g | % ID/g ([3]; Stomach, 2 min post i.v.): 3.67 % ID/g | % ID/g ([3]; Stomach, 5 min post i.v.): 2.28 % ID/g | % ID/g ([3]; Stomach, 30 min post i.v.): 2.48 % ID/g | % ID/g ([3]; Stomach, 60 min post i.v.): 2.17 % ID/g | % ID/g ([3]; Stomach, 120 min post i.v.): 0.98 % ID/g | % ID/g ([3]; Tail, 2 min post i.v.): 15.89 % ID/g | % ID/g ([3]; Tail, 5 min post i.v.): 7.40 % ID/g | % ID/g ([3]; Tail, 30 min post i.v.): 3.74 % ID/g | % ID/g ([3]; Tail, 60 min post i.v.): 7.70 % ID/g | % ID/g ([3]; Tail, 120 min post i.v.): 4.93 % ID/g | % ID/g ([3]; Testes, 2 min post i.v.): 0.97 % ID/g | % ID/g ([3]; Testes, 5 min post i.v.): 1.10 % ID/g | % ID/g ([3]; Testes, 30 min post i.v.): 1.68 % ID/g | % ID/g ([3]; Testes, 60 min post i.v.): 1.18 % ID/g | % ID/g ([3]; Testes, 120 min post i.v.): 0.61 % ID/g | % ID/g ([3]; Thyroid, 2 min post i.v.): 3.97 % ID/g | % ID/g ([3]; Thyroid, 5 min post i.v.): 2.59 % ID/g | % ID/g ([3]; Thyroid, 30 min post i.v.): 1.06 % ID/g | % ID/g ([3]; Thyroid, 60 min post i.v.): 0.59 % ID/g | % ID/g ([3]; Thyroid, 120 min post i.v.): 0.37 % ID/g | brain washout ([3]; i.v., 60 min vs 2 min): 64% | brain uptake ([3]; i.v., after 2 min): 3.99 % injected dose/g tissue | brain level ([3]; i.v., after 60 min): 1.43 % injected dose/g tissue

Oc1ccc(/N=N/c2ccc(-c3nc4ccc(O)cc4s3)cc2)c(C(F)(F)F)c1 [LS-T213, 4-{(E)-[4-(6-Hydroxy-1,3-benzothiazol-2-yl)phenyl]diazenyl}-3-(trifluoromethyl)phenol]
binding to aggregated tau within cells, fluorescence microscopy [2]: selective binding

Source: patent publication US8895313B2, “Ligands for aggregated tau molecules” (Wista Laboratories Ltd., priority 2008, dated 2014)
